For one series, the system named is E. cloacae (CCUG #6323T). Briefly: Antibacterial activity against isolates (Omnilog, Biolog redox dye). The class given is cell-based, Enterobacter cloacae. The note with it: for EC50 / EC90: Enterobacter cloacae, ca-MH broth, 24 h, 37 °C; for Selectivity index E. cloacae (CCUG #6323T): SI = ((EC50 MCF-7 + EC50 HepG2)/2)/EC50 bacterial strain. How it is done:
(§1) The antibacterial activities of eight compounds (1, 3, 4, 6, 8, 10, 16, and 17) were tested against 10 different isolates of Gram-negative bacteria from human and other sources, two E. coli (CCUG #67180 and CCUG #17620/ATCC #25922, control strain), two K. pneumoniae (CCUG #58547 and CCUG #225T), two P. aeruginosa (CCUG #17619 and CCUG #59347), two A. baumannii (CCUG #57035 and CCUG #57250), E. cloacae (CCUG #6323T), and E. hormaechei (CCUG #58962) in a 96-well plate format. The compounds to test were 3-fold diluted in six steps in cation-adjusted Mueller-Hinton (ca-MH) broth to final concentrations spanning from 30 to 0.12 µM, i.e., a 1667–416,667 times dilution from the 50 mM stocks. Bacterial mass from the ten isolates grown overnight on horse blood or Mueller–Hinton agar plates was suspended in ca-MH and adjusted to a final inoculum cell density of ~5 × 10^5 CFU/mL. For all assays, Biolog redox dye A diluted 100× from the stock solution was used for measurements of all ten isolates (up to a total volume of 120 µL per well). All plates included one well per isolate with only inoculum and dye but no test compound (i.e., positive control) and one well per isolate with inoculum, dye and DMSO diluted 1667×, corresponding to the DMSO concentration in the wells with the highest concentration of test compound. All measurements were performed using the Omnilog microplate reader (Biolog, Hayward, CA, USA) where the 96-well plates were read at 15 min intervals for a total of 24 h at 37 °C.

The test system of series [1] is P. caledonica (NBRC/ATCC #102488). Nature of the series: Antibacterial resazurin assay, laboratory strain. The note with it: for EC50 / EC90: Paraburkholderia caledonica, ATCC102488, 18 h; for EC50: read-out: Pcal EC50; for EC90: read-out: Pcal EC90; for Selectivity index P. caledonica: mean of MCF-7 and HepG2 EC50 over bacterial EC50, laboratory strain. Background: Resazurin is reduced to fluorescent resorufin, in cell work by metabolically active cells.

The nature of series [2]: Cytotoxicity assay (PrestoBlue) HepG2. The format is cell-based. The note with it: human, HepG2 cells (hepatoma cell line), 24 h incubation.
The test system of series [3] is B. subtilis (NBRC/ATCC #111470). Nature of the series: Antibacterial resazurin assay, laboratory strain. The conditions noted are these: for EC50 / EC90: Bacillus subtilis, ATCC111470, 18 h; for EC50: read-out: Bsu EC50; for EC90: read-out: Bsu EC90.
For series [4], the system named is E. hormaechei (CCUG #58962). Nature of the series: Antibacterial activity against isolates (Omnilog, Biolog redox dye). The format is cell-based, Enterobacter hormaechei. The conditions noted are these: for EC50 / EC90: Enterobacter hormaechei, CCUG58962, ca-MH broth, 24 h, 37 °C; for Selectivity index E. hormaechei (CCUG #58962): SI = ((EC50 MCF-7 + EC50 HepG2)/2)/EC50 bacterial strain. How it is done: as §1, with “The compounds to test were 3-fold diluted in six steps in cation-adjusted Mueller-Hinton (ca-MH) broth to final concentrations spanning from 30 to 0.12 µM, i.e., a 1667–416,667 times dilution from the 50 mM stocks.” left out

The subject of series [5] is K. pneumoniae (CCUG #225T). Described as above. The class given is cell-based, Klebsiella pneumoniae. The conditions noted are these: for EC50 / EC90: Klebsiella pneumoniae, ca-MH broth, 24 h, 37 °C; for Selectivity index K. pneumoniae (CCUG #225T): SI = ((EC50 MCF-7 + EC50 HepG2)/2)/EC50 bacterial strain. How it is done:
as §1

In series [6] the test system is P. carotovorum (NBRC/ATCC #3380). Briefly: Antibacterial resazurin assay, laboratory strain. The conditions noted are these: for EC50 / EC90: Pectobacterium carotovorum, ATCC3380, 18 h; for EC50: read-out: Pcar EC50, laboratory strain, 18 h, 37 °C, AlamarBlue; for EC90: read-out: Pcar EC90; for Selectivity index P. carotovorum: mean of MCF-7 and HepG2 EC50 over bacterial EC50, laboratory strain.

The subject of series [7] is P. putida (NBRC/ATCC #100650). Briefly: Antibacterial resazurin assay, laboratory strain. The note with it: for EC50 / EC90: Pseudomonas putida, ATCC100650, 18 h; for EC50: read-out: Ppu EC50, laboratory strain, 18 h, 37 °C, AlamarBlue; for EC90: read-out: Ppu EC90; for Selectivity index P. putida: mean of MCF-7 and HepG2 EC50 over bacterial EC50, laboratory strain.
Series [8] deals with A. baumannii (CCUG #57250). Briefly: Antibacterial activity against isolates (Omnilog, Biolog redox dye). The conditions noted are these: for EC90 / EC50: Acinetobacter baumannii, ca-MH broth, 24 h, 37 °C; for EC90: CCUG57250, 24 h; for EC50: CCUG57250; for Selectivity index A. baumannii (CCUG #57250): SI = ((EC50 MCF-7 + EC50 HepG2)/2)/EC50 bacterial strain. The class given is cell-based, Acinetobacter baumannii. Here is the method:
as §1

Structures are written as SMILES.

One may read the EC50 as the concentration giving half of the maximal effect. In general, EC90 refers to the concentration at which the effect reaches the 90% level.

In the case of `COC(=O)c1cc(NC(=N)N)ccc1-c1ccc(-c2ccc(NC(=N)N)cc2C(=O)OC)o1` [Compound 8, 2,5-Bis(4-guanidino-2-(methylcarboxy)phenyl)furan], in the series on E. cloacae (CCUG #6323T), a half-maximal response (EC50) required 4.8 µM, the EC90 stood at 7.1 µM and the “Selectivity index E. cloacae (CCUG #6323T)” value (“Selectivity index E. cloacae” below) is listed as 50.8. Further, in [1], the EC50 is over 300 µM and the EC90 was over 300 µM. Also, in [2], the EC50 at 24 h was 405 µM. For the same compound, in series [3], the EC50 turned out to be 22.5 µM and the EC90 came to 43.6 µM. The “Selectivity index B. subtilis” value in series [3] (mean of MCF-7 and HepG2 EC50 over bacterial EC50, laboratory strain) is listed as 10.8. Besides, in series [4], a half-maximal response (EC50) required 8.3 µM, it took 8.7 µM to reach the 90% level (EC90) and the “Selectivity index E. hormaechei (CCUG #58962)” value was determined as 29.4. Besides, in series [5], it took 5.6 µM to reach a half-maximal effect (EC50), it took 7.9 µM to reach the 90% level (EC90) and the “Selectivity index K. pneumoniae (CCUG #225T)” value came to 43.3. In series [6], the concentration for a half-maximal effect (EC50) was found to be 140 µM, the EC90 worked out at 158 µM and the “Selectivity index P. carotovorum” value worked out at 1.7. In addition, in [7], the EC50 was 68.4 µM, the EC90 was 92.1 µM and the “Selectivity index P. putida” value is reported as 3.6. In series [8], the EC90 was determined as 5.1 µM, a half-maximal response (EC50) required 4.4 µM and the “Selectivity index A. baumannii (CCUG #57250)” value (“Selectivity index A. baumannii” for short) came out at 55.3.

With `N=C(N)NCc1ccc(-c2ccc(-c3ccc(CNC(=N)N)cc3)o2)cc1` [Compound 10, 2,5-Bis(4-guanidinomethylphenyl)furan], the half-maximal effective concentration (EC50) in the series on E. cloacae (CCUG #6323T) is 12.4 µM; in [1], 2.9 µM; in series [3], over 300 µM; in series [4] it was over 200 µM; in [5] it was over 200 µM; in series [6] it was 43.6 µM. The EC50 in series [7] is 25.6 µM; in [8] it was over 200 µM. Besides, the EC90 in the series on E. cloacae (CCUG #6323T) was 24.7 µM; in [1], 5 µM; in series [3], over 300 µM; in series [4], over 200 µM; in series [5], over 200 µM; in [6] it was 61.2 µM. Moreover, the EC90 in series [7] was 36.7 µM; in [8], over 200 µM. In the series on E. cloacae (CCUG #6323T), the “Selectivity index E. cloacae” value was 7.5. Moreover, the “Selectivity index P. caledonica” value in series [1] stood at 31.8. The half-maximal effective concentration (EC50) at 24 h in series [2] amounted to 137 µM. In addition, in series [6], the “Selectivity index P. carotovorum” value stood at 2.1. Further, in series [7], the “Selectivity index P. putida” value is given as 3.6.

Take `N=C(N)Nc1ccc(-c2ccc(C(=O)N3CCc4cc(NC(=N)N)ccc43)o2)c(Cl)c1` [Compound 16, (5-(2-chloro-4-guanidinophenyl)furan-2-yl)(5-guanidinoindolin-1-yl)methanone]: in the series with E. cloacae (CCUG #6323T), a half-maximal response (EC50) required 3.5 µM, it took 7.9 µM to reach the 90% level (EC90) and the “Selectivity index E. cloacae” value worked out at 60.1. In [1], the EC50 was determined as 51.4 µM, the concentration for an effect of 90% (EC90) stood at 176 µM and the “Selectivity index P. caledonica” value is 4.1. The compound also showed an EC50 at 24 h in series [2] of 241 µM. In [3], the EC50 is over 300 µM and the EC90 is over 300 µM. For the same compound, in series [4], the EC50 came to 12.7 µM, the 90% effect concentration (EC90) was 14.7 µM and the “Selectivity index E. hormaechei (CCUG #58962)” value was determined as 16.4. In series [5], the concentration for a half-maximal effect (EC50) came out at 9.8 µM, the 90% effect level (EC90) was put at 12.2 µM and the “Selectivity index K. pneumoniae (CCUG #225T)” value is 21.4. For the same compound, in [6], the EC50 was found to be 70.9 µM, the EC90 was 80.7 µM and the “Selectivity index P. carotovorum” value is 2.9. Further, in [7], the concentration for a half-maximal effect (EC50) was 94.2 µM, the EC90 came to 147 µM and the “Selectivity index P. putida” value was 2.2. Besides, in series [8], the EC90 came to 12.5 µM, the EC50 stood at 12.5 µM and the “Selectivity index A. baumannii” value is reported as 16.7.

Consider `N=C(N)Nc1ccc(-c2ccc(C(=O)N3CCc4cc(NC(=N)N)ccc43)o2)cc1` [Compound 17, (5-(4-guanidinophenyl)furan-2-yl)(5-guanidinoindolin-1-yl)methanone], for which the EC50 is 5.6 µM in the series on E. cloacae (CCUG #6323T); 72.5 µM in series [1]; over 300 µM in series [3]; over 200 µM in [4]; over 200 µM in series [5]; 130 µM in series [6]. Moreover, the figures for the 50% effective concentration (EC50) in series [7] and in series [8] were 73.9 µM and 61.8 µM, respectively. Further, the concentration for an effect of 90% (EC90) in the series on E. cloacae (CCUG #6323T) is 8.6 µM; in [1], over 300 µM; in series [3] it was over 300 µM; in [4] it was over 200 µM; in [5] it was over 200 µM; in [6] it was 142 µM. Also, the EC90 is 98 µM in [7] and 90.3 µM in [8]. For the same compound, the “Selectivity index E. cloacae” value with E. cloacae (CCUG #6323T) came out at 34.8. Also, in series [1], the “Selectivity index P. caledonica” value came out at 2.7. This compound registered an EC50 at 24 h in series [2] of 239 µM. Further, the “Selectivity index P. carotovorum” value in [6] came out at 1.5. Also, the “Selectivity index P. putida” value in [7] worked out at 2.6. Also, in [8], the “Selectivity index A. baumannii” value worked out at 3.1.

The record behind these values is publication PMC9404985, “Development of Dicationic Bisguanidine-Arylfuran Derivatives as Potent Agents against Gram-Negative Bacteria” (Antibiotics, 2022).
